Experimental data published in patent US6469028B1, “Synthesis and use of retinoid compounds having negative hormone and/or anatgonist activities” (Allergan, Inc., priority 1995, dated 2002).
pKd: −log10 of the molar value. Like-named read-outs stand apart in the source and are kept apart here.

Experiments:
[1] = molecular target: T1, RARβ (Homo sapiens, UniProt P10826); test: Example 7: inhibition of RAR transactivation by ATRA, CV-1 cells; assay type: cell-based; parameters: expressed in transfected cells; host or cells: green monkey CV-1 cells; conditions: equal doses of AGN 193109 and ATRA (10 nM ATRA)
T1 sequence (P10826 1-448 isoform P10826-2): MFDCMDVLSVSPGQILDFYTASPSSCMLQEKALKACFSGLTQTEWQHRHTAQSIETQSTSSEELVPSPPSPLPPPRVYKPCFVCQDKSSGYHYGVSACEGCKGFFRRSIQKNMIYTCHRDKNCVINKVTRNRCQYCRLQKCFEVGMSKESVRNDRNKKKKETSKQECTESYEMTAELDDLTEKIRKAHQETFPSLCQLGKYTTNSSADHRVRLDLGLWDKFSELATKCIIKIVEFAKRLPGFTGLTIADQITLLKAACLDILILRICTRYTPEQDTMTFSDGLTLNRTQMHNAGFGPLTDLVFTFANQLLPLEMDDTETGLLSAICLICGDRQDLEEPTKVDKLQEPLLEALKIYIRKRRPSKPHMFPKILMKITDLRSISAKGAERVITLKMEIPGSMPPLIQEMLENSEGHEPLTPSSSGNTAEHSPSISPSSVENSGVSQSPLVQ
Experimental: Eukaryotic expression vectors pRShRAR-α (Giguere et al. Nature 330:624 (1987)), pRShRAR-β (Benbrook et al. Nature 333:669 (1988)) and pRShRAR-γ (Ishikawa et al. Mol. Endocrinol. 4:837 (1990)) were cotransfected with the Δ-MTV-Luc reporter plasmid described by Hollenberg et al. (Cell 55:899.(1988)). […] Calcium phosphate transfections were carried out exactly as described in Example 6. […] Cell lysates and luciferase activity measurements were also performed as in Example 6.

[2] = test system: RAR-γ-VP-16 with ER-RXR-α
[3] = test system: 1,25-dihydroxyvitamin D3-dependent gene expression; test: Example 14: 1,25-dihydroxyvitamin D3 transactivation, MTV-VDRE-Luc in HeLa cells; assay type: cell-based; conditions: AGN 193109 10-100 nM coadministered
Experimental: Hela cells were transfected using the cationic liposome-mediated transfection procedure described by Feigner et al. in Proc. Natl. Acad. Sci. USA 84:7413 (1987). 5×10^4 cells were plated in 12-well multiwell plates and grown in DMEM supplemented with 10% FBS. Cells were cotransfected in serum-free medium using 2 μg/well of LIPOFECTAMINE reagent (Life Technologies, Inc.) with 0.7 μg of the reporter plasmid MTV-VDRE-Luc, containing two copies of the 1,25-dihydroxyvitamin D3 response element [NT] ID NO:4) from the mouse osteopontin gene (Ferrara et al. J. Biol. Chem. 269:2971 (1994)) ligated into the reporter plasmid ΔMTV-Luc (Heyman et al. in Cell 68:397 (1992)), and 0.3 μg of the plasmid pGEM3Z (Pharmacia, Inc.) as carrier DNA to bring the final concentration of DNA to 1.0 μg per well. After six hours of transfection, cells were fed with growth medium containing charcoal extracted FBS at a final concentration of 10%. […] Luciferase activity was measured as described above. This experimental system allowed a convenient method of monitoring and quantitating 1,25-dihydroxyvitamin D3-dependent gene expression.

[4] = test system: ECE16-1 cells; test: Example 17: EGF dependent proliferation of ECE16-1 cells; assay type: cell-based
Experimental: ECE16-1 cells were seeded at a density of 1×10^4 cells per cm^2 in complete medium containing DMEM:F12 (3:1), nonessential amino acids, 5% FBS, 5 μg/ml transferring, 2 nM of 3,3′,5 triiodothyronine (thyroid hormone or “T3”), 0.1 nNM cholera toxin, 2 mM L-glutamine, 1.8×10^−4 M adenine and 10 ng/ml EGF. Cells were allowed to attach to plates overnight and then shifted to defined medium containing DMEM:F12 (3:1), 2 mM L-glutamine, nonessential amino acids, 0.1% bovine serum albumin, 1.8×10^−4 M adenine, 5 μg/ml transferring, 2 nM T3, 50 μg/ml ascorbic acid, 100 ug/ml streptomycin, 100 units/ml penicillin and 50 μg/ml gentamicin. Defined medium (DM) was supplemented with 10 ng/ml EGF. […] After three days of treatment, cells were harvested as described by Hembree et al. in Cancer Res. 54:3160 (1994) and cell numbers determined using a COULTER counter.

[5] = test system: stromelysin-1 expression in primary foreskin keratinocytes; test: Example 21: stromelysin-1 expression in keratinocytes (RT-PCR); assay type: cell-based, human; conditions: AGN 191183 10^−7 M or AGN 193109 10^−6 M, 24 hours
Experimental: Total RNA prepared from mock-treated and retinoid-treated keratinocytes was reverse transcribed and the resulting cDNA was PCR amplified using β-actin or stromelysin-1 oligo primers exactly as described by Nagpal et al. in J. Biol. Chem. 270:923 (1995)), the disclosure of which has been incorporated by reference. A sample (10 μl) from the PCR amplification reaction was removed after every three cycles starting from 18 cycles of PCR amplification. The sample was electrophoresed on a 2% agarose gel and detected after ethidium bromide staining.

[6] = molecular target: T2, RARα (Homo sapiens, UniProt P10276); test: [3H]-ATRA displacement assay, baculovirus expressed receptor; assay type: binding; parameters: made in house; host or cells: baculovirus expression system
T2 sequence (P10276 1-462): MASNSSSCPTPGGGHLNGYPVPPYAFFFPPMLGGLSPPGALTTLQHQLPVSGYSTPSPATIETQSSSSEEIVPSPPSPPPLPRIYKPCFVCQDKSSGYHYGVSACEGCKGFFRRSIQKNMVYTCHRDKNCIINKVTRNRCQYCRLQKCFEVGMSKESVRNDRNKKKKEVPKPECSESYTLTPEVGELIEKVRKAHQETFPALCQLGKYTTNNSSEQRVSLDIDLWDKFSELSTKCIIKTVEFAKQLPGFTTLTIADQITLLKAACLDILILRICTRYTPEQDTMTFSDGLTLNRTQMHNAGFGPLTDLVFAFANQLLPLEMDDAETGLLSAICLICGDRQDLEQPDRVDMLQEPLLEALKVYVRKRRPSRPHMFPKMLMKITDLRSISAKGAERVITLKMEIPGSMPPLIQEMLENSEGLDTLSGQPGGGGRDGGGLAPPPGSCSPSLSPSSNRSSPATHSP

`Cc1ccc(C2=CCC(C)(C)c3ccc(C#Cc4ccc(C(=O)O)cc4)cc32)cc1` [Compound 60, 4-[(5,6-dihydro-5,5-dimethyl-8-(4-methylphenyl)-2-naphthalenyl)ethynyl]benzoic acid] was tested, and the “inhibition of luciferase activity relative to ATRA alone” value [1] was “greater than 50%”, the luciferase activity readings ([2]; AGN 193109 at 10^−8−10^−6 M (maximal inhibition)) was “approximately 16,000 rlu” and the “concentration of maximal inhibition of luciferase activity” value ([2]; cells cotransfected with ER-RXR-α and RAR-γ-VP-16) was “approximately 10^−8 M”. For the same compound, the “luciferase activity of triple transfectants” value ([2]; no other retinoid added, 18 hours) was “dose dependent decrease in luciferase activity”, the “increase in activity of 1,25-dihydroxyvitamin D3” value [3] was “approximately 10 fold” and the EGF mediated proliferation ([4]; 1000 nM AGN 193109 alone) was “no effect on the EGF mediated proliferation increase”. The “antagonism of AGN 191183 mediated growth inhibition” value ([4]; AGN 193109 10 nM with 10 nM AGN 191183) was “approximately 50%”, the “antagonism of AGN 191183 antiproliferative effect” value ([4]; ten-fold molar excess of AGN 193109 over 10 nM AGN 191183) was “completely reversed the antiproliferative effect of AGN 191183” and the “stromelysin-1 mRNA expression” value [5] was “down-regulation of stromelysin-1 mRNA levels”. For the same compound, the Kd ([6]; Table 11, read-out: Kd (nM) RAR-α) was 2 nM and the pKd ([6]; as stated in Example 8, read-out: Kd at RAR-α) was 8.00.
